Laboratory results as given in article PMC11025159 (Journal of Translational Medicine, 2024).

What was measured:
[1] = Stability of the formulation used for in vivo studies (HPLC); type: physicochemical; details: ethanol / ethanol:PEG-300, room temperature, 0-48 h
Method: The stability study of the lead compound (MJ04) was performed using HPLC analysis wherein the samples were studied after different time intervals. The 0.6 mg of MJ04 was taken and dissolved in 1 mL of ethanol to achieve 0.6 mg/mL concentration. Out of this, 500 µL was further diluted to 0.3 mg/mL by adding 500 µL ethanol to it (Ethanol sample). To remaining 500 µL, we added 500 µL PEG-300 to achieve final concentration of 0.3 mg /mL (Ethanol:PEG sample). HPLC of these samples was performed at various time points (0 h, 12 h, 24 h and 48 h) upon incubating at room temperature. The HPLC of samples was performed by RP-18 end capped; […], 4.6 × 250 mm. The mobile phase containing water (30%) and acetonitrile (70%) was used at the flow rate of 1 mL/min at a column temperature of 27 °C at 210 nm wavelength. A volume of 5 µL of sample was injected and the total run time of the assay was 30 min using the isocratic technique in the HPLC system.

[2] = Acute dermal toxicity / irritation in C57BL/6 mice; type: in vivo
Method: The acute dermal toxicity was conducted in Wistar rats to determine the dermal LD50 of MJ04 adhering to Organization for Economic Cooperation and Development (OECD) test guideline 402. A single dose of MJ04 covering 10% of body surface area was administered using a fixed dose procedure from 200 mg/kg to 2000 mg/kg with two animals per dose. The animals were monitored for mortality, morbidity, and clinical signs of toxicity at first 30 min, 6 h, 24 h, and thereafter for 14 days. Parameters like body weight, serum biochemistry (liver function test, kidney function test, and lipid Profile), and histopathology were analysed. The acute dermal irritation test was conducted in C57BL/6J mice at a single dose of 0.04 mg/kg and 0.08 mg/kg of MJ04.
Signal dose acute dermal toxicity tests were conducted in C57BL/6 mice. The tests included limited dosages of a single dose at 0.04 mg/kg and 0.08 mg/kg of MJ04. […] Digital photographs were taken at various time points (0 min, 5 min, 1 h, 4 h, 24 h, and 14 days) from representative areas using a Nikon digital camera (n = 5 mice).

[3] = target: T1, PI-3-K α (Homo sapiens, UniProt P42336); assay: Cell-free kinase assay PI-3-K α; type: biochemical; details: Km ATP
T1 construct: purchased Promega Corporation V1690
T1 sequence (P42336 whole entry): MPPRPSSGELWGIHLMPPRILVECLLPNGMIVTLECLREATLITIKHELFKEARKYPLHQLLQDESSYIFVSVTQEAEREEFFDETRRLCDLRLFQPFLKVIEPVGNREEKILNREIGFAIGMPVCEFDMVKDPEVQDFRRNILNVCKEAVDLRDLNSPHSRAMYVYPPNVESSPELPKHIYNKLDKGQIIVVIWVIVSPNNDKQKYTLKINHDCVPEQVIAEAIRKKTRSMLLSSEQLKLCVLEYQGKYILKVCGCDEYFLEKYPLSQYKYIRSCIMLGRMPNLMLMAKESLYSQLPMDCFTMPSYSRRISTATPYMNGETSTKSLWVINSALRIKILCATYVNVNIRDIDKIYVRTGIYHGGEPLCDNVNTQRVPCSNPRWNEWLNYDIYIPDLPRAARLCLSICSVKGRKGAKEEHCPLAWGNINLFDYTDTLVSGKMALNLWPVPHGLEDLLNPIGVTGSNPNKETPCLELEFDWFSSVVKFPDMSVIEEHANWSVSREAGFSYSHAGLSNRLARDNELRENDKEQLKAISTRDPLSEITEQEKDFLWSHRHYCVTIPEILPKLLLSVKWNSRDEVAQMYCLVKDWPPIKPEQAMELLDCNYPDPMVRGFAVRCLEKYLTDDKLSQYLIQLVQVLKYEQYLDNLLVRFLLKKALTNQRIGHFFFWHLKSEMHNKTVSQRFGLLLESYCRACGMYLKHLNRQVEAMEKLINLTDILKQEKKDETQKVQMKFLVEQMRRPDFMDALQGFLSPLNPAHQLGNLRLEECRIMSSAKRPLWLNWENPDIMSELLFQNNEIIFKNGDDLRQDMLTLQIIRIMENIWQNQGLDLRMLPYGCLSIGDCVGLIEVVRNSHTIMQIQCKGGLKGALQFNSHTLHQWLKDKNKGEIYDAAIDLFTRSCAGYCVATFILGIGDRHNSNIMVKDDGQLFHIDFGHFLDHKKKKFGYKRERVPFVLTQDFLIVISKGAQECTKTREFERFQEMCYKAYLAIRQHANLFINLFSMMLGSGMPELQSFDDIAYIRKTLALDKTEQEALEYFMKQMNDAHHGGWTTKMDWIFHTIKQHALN
T1 sequence (P27986 whole entry partner): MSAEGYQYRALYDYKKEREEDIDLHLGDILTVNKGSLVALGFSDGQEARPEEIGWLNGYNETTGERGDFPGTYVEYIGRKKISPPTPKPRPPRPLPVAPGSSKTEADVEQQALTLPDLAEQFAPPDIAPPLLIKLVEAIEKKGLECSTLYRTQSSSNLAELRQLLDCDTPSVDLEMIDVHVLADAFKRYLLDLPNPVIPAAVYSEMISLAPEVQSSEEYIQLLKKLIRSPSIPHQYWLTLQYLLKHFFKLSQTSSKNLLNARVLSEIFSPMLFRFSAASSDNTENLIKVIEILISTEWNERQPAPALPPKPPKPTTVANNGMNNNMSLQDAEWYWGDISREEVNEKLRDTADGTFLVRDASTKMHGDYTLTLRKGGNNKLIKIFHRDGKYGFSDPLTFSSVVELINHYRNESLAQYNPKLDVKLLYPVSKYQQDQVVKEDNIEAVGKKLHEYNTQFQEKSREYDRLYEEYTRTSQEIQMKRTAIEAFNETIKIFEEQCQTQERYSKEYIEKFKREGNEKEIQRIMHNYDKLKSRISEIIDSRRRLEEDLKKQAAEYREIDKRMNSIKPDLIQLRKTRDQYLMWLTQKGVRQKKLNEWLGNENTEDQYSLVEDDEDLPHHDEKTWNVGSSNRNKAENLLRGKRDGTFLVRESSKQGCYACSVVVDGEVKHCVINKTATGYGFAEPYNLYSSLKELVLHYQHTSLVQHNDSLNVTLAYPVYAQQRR
Method: The cell-free kinase assays of small molecules were determined by following the manufacturer-recommended protocols. Different concentrations in triplicate were used to determine the IC50 value of the hit molecules (active molecules). For data analysis, GraphPad Prism V9.5 Software and a sigmoidal dose–response (variable slope) equation were used. Each value represents an average of three replicates per concentration.

Fc1ccc(-c2cnc3[nH]cc(-c4ccnc(NC5CC5)n4)c3c2)cc1 [MJ04]
stability in the formulation used for animal experiments [1]: stable | mortality or clinical signs of toxicity ([2]; single dose 0.04 mg/kg): no mortality or clinical signs of toxicity | skin irritation/corrosion, mortality or clinical signs of toxicity ([2]; single dose 0.08 mg/kg, 14 days, 0.08 mg/kg): no skin irritation/corrosion, mortality or clinical signs of toxicity | IC50 [3]: > 10 µM
